Data as given in patent US20080200515A1, “SOLID STATE FORMS OF ENANTIOPURE ILAPRAZOLE” (TAP PHARMACEUTICAL PRODUCTS INC., priority 2006, published 2008).

What was measured:
[1] = test system: acid-related gastric and duodenal ulcers; assay: Phase 2 clinical studies with ilaprazole in patients with gastric-acid related disorders; assay type: in vivo, human; details: at the doses studied
gastric acid = assay: Phase 1 clinical studies with ilaprazole: suppression of gastric acid; assay type: in vivo, human; details: at the doses studied

COc1ccnc(C[S+]([O-])c2nc3cc(-n4cccc4)ccc3[nH]2)c1C (stereo not drawn) [ilaprazole, 2[[(4-methoxy-3-methyl-2-pyridinyl)-methyl]sulfinyl]-5-(1H-pyrrol-1-yl) 1H-Benzimidazole]
healing of acid-related gastric and duodenal ulcers [1]: promoted rapid healing | symptomatic relief ([1]; patients with gastric-acid related disorders): provided symptomatic relief | suppression of gastric acid (gastric acid): suppression of gastric acid occurs over a 24-hour period
